Tested on: Endogenous Huntingtin Protein
Assay: Endogenous Huntingtin Protein Assay (MSD plates, MW1 or MAB2166 capture antibody)
Assay type: cell-based
Conditions: Table 1
Procedure, shortened: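 Sandwich MSD immunoassay: plates were coated overnight at 4° C with MW1 (expanded polyQ) or MAB2166 capture antibody at 1 μg/mL, then blocked with 5% BSA. Samples were bound overnight at 4° C, followed by rabbit mAb #5656S and SULFO-TAG anti-rabbit detection, each at 0.25 μg/mL for 1 h at room temperature. Signal was read by electrochemiluminescence.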

`CN(c1nc2sc(-c3cc(F)c(-c4cn[nH]c4)cc3F)nc2s1)[C@@H]1C[C@H]2CC[C@@H](C1)N2` [Compound 158, N-[(1R,3s,5S)-8-azabicyclo[3.2.1]octan-3-yl]-5-[2,5-difluoro-4-(1H-pyrazol-4-yl)phenyl]-N-methyl[1,3]thiazolo[5,4-d][1,3]thiazol-2-amine] and `CN(c1nc2sc(-c3ccc(-c4cn[nH]c4)c4cc[nH]c34)nc2s1)[C@@H]1C[C@H]2CC[C@@H](C1)N2` [Compound 183, N-[(1R,3s,5S)-8-azabicyclo[3.2.1]octan-3-yl]-N-methyl-5-[4-(1H-pyrazol-4-yl)-1H-indol-7-yl][1,3]thiazolo[5,4-d][1,3]thiazol-2-amine] cannot be ordered by IC50: ≤ 100 nM for the first, ≤ 100 nM for the second.

`CN(c1nc2sc(-c3ncc(-c4cn[nH]c4)c4cc[nH]c34)nc2s1)C1CC(C)(C)NC(C)(C)C1` [Compound 159, N-methyl-5-[4-(1H-pyrazol-4-yl)-1H-pyrrolo[2,3-c]pyridin-7-yl]-N-(2,2,6,6-tetramethylpiperidin-4-yl)[1,3]thiazolo[5,4-d][1,3]thiazol-2-amine] and `CN(c1nc2sc(-c3cnc(-c4cn[nH]c4)cn3)nc2s1)C1CC(C)(C)NC(C)(C)C1` [Compound 163, N-methyl-5-[5-(1H-pyrazol-4-yl)pyrazin-2-yl]-N-(2,2,6,6-tetramethylpiperidin-4-yl)[1,3]thiazolo[5,4-d][1,3]thiazol-2-amine] cannot be ordered by IC50: ≤ 100 nM for the first, ≤ 100 nM for the second.

`CN(c1nc2sc(-c3nccc4cc[nH]c34)nc2s1)[C@@H]1C[C@H]2CC[C@@H](C1)N2` [Compound 160, N-[(1R,3s,5S)-8-azabicyclo[3.2.1]octan-3-yl]-N-methyl-5-(1H-pyrrolo[2,3-c]pyridin-7-yl)[1,3]thiazolo[5,4-d][1,3]thiazol-2-amine] and `CN(c1nc2sc(-c3ncc(-c4cn[nH]c4)c4cc[nH]c34)nc2s1)[C@@H]1C[C@H]2CC[C@@H](C1)N2` [Compound 184, N-[(1R,3s,5S)-8-azabicyclo[3.2.1]octan-3-yl]-N-methyl-5-[4-(1H-pyrazol-4-yl)-1H-pyrrolo[2,3-c]pyridin-7-yl][1,3]thiazolo[5,4-d][1,3]thiazol-2-amine] cannot be ordered by IC50: 100 to 500 nM for the first, ≤ 100 nM for the second.

`CN(c1nc2sc(-c3ncc(-c4cn[nH]c4)cn3)nc2s1)[C@H]1CCCNC1` [Compound 161, N-methyl-N-[(3S)-piperidin-3-yl]-5-[5-(1H-pyrazol-4-yl)pyrimidin-2-yl][1,3]thiazolo[5,4-d][1,3]thiazol-2-amine] and `CN(c1nc2sc(-c3cnc(-c4cn[nH]c4)nc3)nc2s1)[C@@H]1C[C@H]2CC[C@@H](C1)N2` [Compound 175, N-[(1R,3s,5S)-8-azabicyclo[3.2.1]octan-3-yl]-N-methyl-5-[2-(1H-pyrazol-4-yl)pyrimidin-5-yl][1,3]thiazolo[5,4-d][1,3]thiazol-2-amine] cannot be ordered by IC50: 100 to 500 nM for the first, ≤ 100 nM for the second.

`CN(c1nc2sc(-c3ncc(-c4cn[nH]c4)cn3)nc2s1)C1CC(C)(C)NC(C)(C)C1` [Compound 162, N-methyl-5-[5-(1H-pyrazol-4-yl)pyrimidin-2-yl]-N-(2,2,6,6-tetramethylpiperidin-4-yl)[1,3]thiazolo[5,4-d][1,3]thiazol-2-amine] and `CN(c1nc2sc(-c3ccc(-c4cn[nH]c4)nn3)nc2s1)C1CC(C)(C)NC(C)(C)C1` [Compound 167, N-methyl-5-[6-(1H-pyrazol-4-yl)pyridazin-3-yl]-N-(2,2,6,6-tetramethylpiperidin-4-yl)[1,3]thiazolo[5,4-d][1,3]thiazol-2-amine] cannot be ordered by IC50: ≤ 100 nM for the first, 100 to 500 nM for the second.

`CN(c1nc2sc(-c3cnc(-c4cn[nH]c4)cn3)nc2s1)[C@@H]1C[C@H]2CC[C@@H](C1)N2` [Compound 164, N-[(1R,3s,5S)-8-azabicyclo[3.2.1]octan-3-yl]-N-methyl-5-[5-(1H-pyrazol-4-yl)pyrazin-2-yl][1,3]thiazolo[5,4-d][1,3]thiazol-2-amine] and `CN(c1nc2sc(-c3ccc(-c4cn[nH]c4)cn3)nc2s1)[C@@H]1C[C@H]2CC[C@@H](C1)N2` [Compound 174, N-[(1R,3s,5S)-8-azabicyclo[3.2.1]octan-3-yl]-N-methyl-5-[5-(1H-pyrazol-4-yl)pyridin-2-yl][1,3]thiazolo[5,4-d][1,3]thiazol-2-amine] cannot be ordered by IC50: ≤ 100 nM for the first, ≤ 100 nM for the second.

`CCCN1[C@@H]2CC[C@H]1C[C@H](N(C)c1nc3sc(-n4ccc(-c5cn[nH]c5)cc4=O)nc3s1)C2` [Compound 165, 1-(5-{methyl[(1R,3s,5S)-8-propyl-8-azabicyclo[3.2.1]octan-3-yl]amino}[1,3]thiazolo[5,4-d][1,3]thiazol-2-yl)-4-(1H-pyrazol-4-yl)pyridin-2(1H)-one] and `CCN1[C@@H]2CC[C@H]1C[C@H](N(C)c1nc3sc(-n4ccc(-c5cn[nH]c5)cc4=O)nc3s1)C2` [Compound 166, 1-(5-{[(1R,3s,5S)-8-ethyl-8-azabicyclo[3.2.1]octan-3-yl](methyl)amino}[1,3]thiazolo[5,4-d][1,3]thiazol-2-yl)-4-(1H-pyrazol-4-yl)pyridin-2(1H)-one] cannot be ordered by IC50: ≤ 100 nM for the first, ≤ 100 nM for the second.

`CN(c1nc2sc(-c3ccc(-c4cn[nH]c4)nn3)nc2s1)[C@@H]1C[C@H]2CC[C@@H](C1)N2` [Compound 168, N-[(1R,3s,5S)-8-azabicyclo[3.2.1]octan-3-yl]-N-methyl-5-[6-(1H-pyrazol-4-yl)pyridazin-3-yl][1,3]thiazolo[5,4-d][1,3]thiazol-2-amine] and `CN(c1nc2sc(-c3ccc(-c4cn[nH]c4)nc3)nc2s1)[C@@H]1C[C@H]2CC[C@@H](C1)N2` [Compound 173, N-[(1R,3s,5S)-8-azabicyclo[3.2.1]octan-3-yl]-N-methyl-5-[6-(1H-pyrazol-4-yl)pyridin-3-yl][1,3]thiazolo[5,4-d][1,3]thiazol-2-amine] cannot be ordered by IC50: ≤ 100 nM for the first, ≤ 100 nM for the second.

`CN(c1nc2sc(-n3ccc(-c4cn[nH]c4)cc3=O)nc2s1)[C@H]1CCCNC1` [Compound 169, 1-(5-{methyl[(3S)-piperidin-3-yl]amino}[1,3]thiazolo[5,4-d][1,3]thiazol-2-yl)-4-(1H-pyrazol-4-yl)pyridin-2(1H)-one] and `CC1CC(N(C)c2nc3sc(-n4ccc(-c5cn[nH]c5)cc4=O)nc3s2)CCN1C` (stereo not drawn) [Compound 180, 1-{5-[(1,2-dimethylpiperidin-4-yl)(methyl)amino][1,3]thiazolo[5,4-d][1,3]thiazol-2-yl}-4-(1H-pyrazol-4-yl)pyridin-2(1H)-one] cannot be ordered by IC50: ≤ 100 nM for the first, ≤ 100 nM for the second.

`CN(c1nc2sc(-n3cnc(-c4cn[nH]c4)c3)nc2s1)[C@@H]1C[C@H]2CC[C@@H](C1)N2` [Compound 170, N-[(1R,3s,5S)-8-azabicyclo[3.2.1]octan-3-yl]-N-methyl-5-[4-(1H-pyrazol-4-yl)-1H-imidazol-1-yl][1,3]thiazolo[5,4-d][1,3]thiazol-2-amine] and `CN(c1nc2sc(-n3cnc(-c4cn[nH]c4)cc3=O)nc2s1)[C@@H]1C[C@H]2CC[C@@H](C1)N2` [Compound 172, 3-(5-{[(1R,3s,5S)-8-azabicyclo[3.2.1]octan-3-yl](methyl)amino}[1,3]thiazolo[5,4-d][1,3]thiazol-2-yl)-6-(1H-pyrazol-4-yl)pyrimidin-4(3H)-one] cannot be ordered by IC50: 100 to 500 nM for the first, ≤ 100 nM for the second.

`CN(c1nc2sc(-n3ccc(Br)cc3=O)nc2s1)[C@@H]1C[C@H]2CC[C@@H](C1)N2` [Compound 171, 1-(5-{[(1R,3s,5S)-8-azabicyclo[3.2.1]octan-3-yl](methyl)amino}[1,3]thiazolo[5,4-d][1,3]thiazol-2-yl)-4-bromopyridin-2(1H)-one] and `CN(c1nc2sc(-n3ccccc3=O)nc2s1)[C@@H]1C[C@H]2CC[C@@H](C1)N2` [Compound 187, 1-(5-{[(1R,3s,5S)-8-azabicyclo[3.2.1]octan-3-yl](methyl)amino}[1,3]thiazolo[5,4-d][1,3]thiazol-2-yl)pyridin-2(1H)-one] cannot be ordered by IC50: ≤ 100 nM for the first, 100 to 500 nM for the second.

First: Cn1cc2cc(-c3nc4sc(N5CC6(CCNCC6)C5)nc4s3)cc(F)c2n1 [Compound 176, 5-[5-(2,7-diazaspiro[3.5]nonan-2-yl)[1,3]thiazolo[5,4-d][1,3]thiazol-2-yl]-7-fluoro-2-methyl-2H-indazole]
Second: Fc1cc(-c2nc3sc(N4CC5(CCNCC5)C4)nc3s2)c(F)cc1-c1cn[nH]c1 [Compound 177, 2-{5-[2,5-difluoro-4-(1H-pyrazol-4-yl)phenyl][1,3]thiazolo[5,4-d][1,3]thiazol-2-yl}-2,7-diazaspiro[3.5]nonane]
The IC50 of the first is lower: 100 to 500 nM for the first, 1000 to 3000 nM for the second. The first is the more potent here.

`CN(c1nc2sc(-n3ccc(-c4cn[nH]c4)cc3=O)nc2s1)[C@@H]1C[C@H]2CC[C@@H](C1)N2C` [Compound 178, 1-(5-{methyl[(1R,3s,5S)-8-methyl-8-azabicyclo[3.2.1]octan-3-yl]amino}[1,3]thiazolo[5,4-d][1,3]thiazol-2-yl)-4-(1H-pyrazol-4-yl)pyridin-2(1H)-one] and `CN(c1nc2sc(-n3ccc(-c4cn[nH]c4)cc3=O)nc2s1)C1CC(C)(C)NC(C)(C)C1` [Compound 181, 1-{5-[methyl(2,2,6,6-tetramethylpiperidin-4-yl)amino][1,3]thiazolo[5,4-d][1,3]thiazol-2-yl}-4-(1H-pyrazol-4-yl)pyridin-2(1H)-one] cannot be ordered by IC50: ≤ 100 nM for the first, ≤ 100 nM for the second.

`CN1CCC2(CC1)CCN2c1nc2sc(-c3ncc(-c4cn[nH]c4)cc3O)nc2s1` [Compound 179, 2-[5-(7-methyl-1,7-diazaspiro[3.5]nonan-1-yl)[1,3]thiazolo[5,4-d][1,3]thiazol-2-yl]-5-(1H-pyrazol-4-yl)pyridin-3-ol] and `CC1CC(N(C)c2nc3sc(-c4ncc(-c5cn[nH]c5)cc4O)nc3s2)CCN1C` (stereo not drawn) [Compound 182, 2-{5-[(1,2-dimethylpiperidin-4-yl)(methyl)amino][1,3]thiazolo[5,4-d][1,3]thiazol-2-yl}-5-(1H-pyrazol-4-yl)pyridin-3-ol] cannot be ordered by IC50: ≤ 100 nM for the first, ≤ 100 nM for the second.

`CN(c1nc2sc(-c3ncc(Br)cc3O)nc2s1)[C@@H]1C[C@H]2CC[C@@H](C1)N2` [Compound 185, 2-(5-{[(1R,3s,5S)-8-azabicyclo[3.2.1]octan-3-yl](methyl)amino}[1,3]thiazolo[5,4-d][1,3]thiazol-2-yl)-5-bromopyridin-3-ol] and `CN(c1nc2sc(-c3ncc(Br)cn3)nc2s1)[C@@H]1C[C@H]2CC[C@@H](C1)N2` [Compound 186, N-[(1R,3s,5S)-8-azabicyclo[3.2.1]octan-3-yl]-5-(5-bromopyrimidin-2-yl)-N-methyl[1,3]thiazolo[5,4-d][1,3]thiazol-2-amine] cannot be ordered by IC50: ≤ 100 nM for the first, ≤ 100 nM for the second.
